Reference: patent US10106571B2, “HCV polymerase inhibitors” (priority 2013, dated 2018)
Like-named read-outs stand apart in the source and are kept apart here.

Legend:
Format in all cases: cell-based
[1] = tested on: HCV GT4a; assay: HCV GT4a chimeric replicon; details: Hepatitis C virus, read-out: EC50 HCV GT4a*
Description: (§1) The compound of Example 2 was further evaluated to assess the antiviral activity against genotypes 1-6 of HCV, both wild type and a number of clinically relevant mutant strains. The result of the evaluation together with the average EC50 of the genotypes and the corresponding values for sofosbuvir are summarised in Tables 2 and 3.

[2] = tested on: HCV GT6a; assay: HCV GT6a chimeric replicon; details: Hepatitis C virus, read-out: EC50 HCV GT6a*
Description: as §1

[3] = tested on: HCV GT1b L159F/L320F; assay: HCV GT1b L159F/L320F mutant replicon; details: for EC50: Hepatitis C virus, GT1B, read-out: EC50 HCV GT1b L159F/L320F; for FC vs WT, HCV GT1b L159F/L320F: fold change of EC50 vs wild type
Description: as §1

[4] = tested on: HCV GT3a L159F/L320F; assay: Genotype 3a transient replicon, L159F/L320F double mutant; details: for EC50: Hepatitis C virus; for FC vs WT, HCV GT3a* L159F/L320F: fold change of EC50 vs wild type
Method: (§2) Similarly, the L159F/L320F double mutant generated by exposure to the nucleoside mericitabine and conferring cross resistance to sofosbuvir (Tong et al 2013 J. Infect. Dis., 209 (5), 668-75) was prepared in a genotype 3a transient replicon as described above in Kylefjord et al. ibid.
as §1

[5] = tested on: genotypes 1-6 of HCV, wild type; assay: Average over wild type HCV genotype assays (Table 2); details: for EC50: Hepatitis C virus, arithmetic mean +/- SEM; for potency increase vs sofosbuvir: from AVG EC50
Description: as §1

[6] = tested on: HCV GT2a virus; assay: HCV GT2a virus; details: Hepatitis C virus, wild type, geometric mean
Description: as §1

[7] = tested on: HCV GT1a; assay: HCV GT1a chimeric replicon; details: Hepatitis C virus, read-out: EC50 HCV GT1a*
Description: as §1

[8] = tested on: HCV GT1b (transient); assay: HCV GT1b (transient) replicon; details: Hepatitis C virus, read-out: EC50 HCV GT1b (transient)
Description: as §1

[9] = tested on: HCV GT3a S282T; assay: Genotype 3a transient replicon bearing the S282T mutation; details: for EC50: Hepatitis C virus; for FC vs WT, HCV GT3a* S282T: fold change of EC50 vs wild type
Method: (§3) The antiviral activity of commercially available sofosbuvir and the compound of Example 2 were compared in a genotype 3a transient replicon assay described in Kylefjord et al., J Virol. Methods 2014 195:156-63.
as §2, §1

[10] = tested on: HCV GT1b S282T; assay: HCV GT1b S282T mutant replicon; details: for EC50: Hepatitis C virus, GT1B, read-out: EC50 HCV GT1b S282T; for FC vs WT, HCV GT1b S282T: fold change of EC50 vs wild type
Description: as §1

[11] = tested on: HCV mutant strains; assay: Average over HCV mutant assays (Table 3); details: for EC50: Hepatitis C virus, read-out: AVG EC50; for potency increase vs sofosbuvir: mutant assays, from AVG EC50
Description: as §1

[12] = tested on: HCV type 1b replicon (Huh-7 luc/neo, Huh-Luc); assay: Replicon assay, Huh-Luc cells with HCV type 1b replicon (stable), luciferase readout
Description: The compounds of formula I may be examined for activity in the inhibition of HCV RNA replication in a cellular assay aimed at identifying compounds that inhibit a HCV functional cellular replicating cell line, also known as HCV replicons. A suitable cellular assay is based on a bicistronic expression construct, as described by Lohmann et al. (1999), Science vol. 285 pp. 110-113 with modifications described by Krieger et al. (2001), Journal of Virology 75: 4614-4624, in a multi-target screening strategy.
The assay utilizes the stably transfected cell line Huh-7 luc/neo (hereafter referred to as Huh-Luc). This cell line harbors an RNA encoding a bicistronic expression construct comprising the wild type NS3-NS5B regions of HCV type 1b translated from an Internal Ribosome Entry Site (IRES) from encephalomyocarditis virus (EMCV), preceded by a reporter portion (FfL-luciferase), and a selectable marker portion (neo^R, neomycine phosphotransferase). The construct is bordered by 5′ and 3′ NTRs (non-translated regions) from HCV type 1b. Continued culture of the replicon cells in the presence of G418 (neo^R) is dependent on the replication of the HCV RNA. The stably transfected replicon cells that express HCV RNA, which replicates autonomously and to high levels, encoding inter alia luciferase, are used for screening the antiviral compounds.
The replicon cells are plated in 384 well plates in the presence of the test and control compounds which are added in various concentrations. Following an incubation of three days, HCV replication is measured by assaying luciferase activity (using standard luciferase assay substrates and reagents and a Perkin Elmer ViewLux™ ultraHTS microplate imager). Replicon cells in the control cultures have high luciferase expression in the absence of any inhibitor. The inhibitory activity of a compound on luciferase activity is monitored on the Huh-Luc cells, enabling a dose-response curve for each test compound. EC50 values are then calculated, which value represents the amount of the compound required to decrease the level of detected luciferase activity by 50%, or more specifically, the ability of the genetically linked HCV replicon RNA to replicate.

[13] = tested on: HCV GT5a; assay: HCV GT5a chimeric replicon; details: Hepatitis C virus, read-out: EC50 HCV GT5a*
Description: as §1

[14] = tested on: HCV GT3a; assay: Genotype 3a transient replicon assay (Kylefjord et al.); details: Hepatitis C virus
Description: as §3, §1

[15] = tested on: HCV GT1a S282T; assay: HCV GT1a S282T chimeric mutant replicon; details: for EC50: Hepatitis C virus, GT1A, read-out: EC50 HCV GT1a* S282T; for FC vs WT, HCV GT1a* S282T: fold change of EC50 vs wild type
Description: as §1

[16] = tested on: HCV GT2a replicon; assay: HCV GT2a replicon; details: Hepatitis C virus, read-out: EC50 HCV GT2a replicon
Description: as §1

[17] = GT3A, read-out: EC50 HCV GT3a* L159F/L320F
[18] = read-out: EC50, genotype 3a L159F/L320F double mutant
[19] = GT3A, read-out: EC50 HCV GT3a* S282T
[20] = read-out: EC50, genotype 3a S282T
[21] = Hepatitis C virus, GT1B, Huh-7, wild type, geometric mean, read-out: EC50 HCV GT1b (stable)
[22] = read-out: EC50 against genotype 3a

With `CC(C)OC(=O)[C@H](C)N[P@](=O)(OC[C@H]1O[C@@H](n2ccc(=O)[nH]c2=O)[C@](C)(F)[C@@H]1O)Oc1ccccc1` [sofosbuvir, reference compound] the EC50 [1] was 218 nM, the EC50 [2] was 179 nM and the EC50 [3] was 199 nM. The “FC vs WT, HCV GT1b L159F/L320F” value [3] was 2.5, the EC50 [4, 17] was 190 nM and the EC50 [4, 18] was 190 nM. The “FC vs WT, HCV GT3a* L159F/L320F” value [4] was 1.5, the EC50 [5] was 117 nM and the “potency increase vs sofosbuvir” value [5] was 1.0. The EC50 [6] was 54 nM, the EC50 [7] was 131 nM and the EC50 [8] was 81 nM. For the same compound, the EC50 [9, 19] was 521 nM, the EC50 [9, 20] was 480 nM and the “FC vs WT, HCV GT3a* S282T” value [9] was 4.0. The EC50 [10] was 741 nM, the “FC vs WT, HCV GT1b S282T” value [10] was 8.8 and the EC50 [11] was 532 nM. The “potency increase vs sofosbuvir” value [11] was 1.0, the EC50 [12, 21] was 98 nM and the EC50 [13] was 114 nM. For the same compound, the EC50 ([14]; GT3A, read-out: EC50 HCV GT3a*) was 129 nM, the EC50 [14, 22] was 230 nM and the EC50 [15] was 1010 nM. The “FC vs WT, HCV GT1a* S282T” value [15] was 7.7 and the EC50 [16] was 48 nM.

For `CC(C)OC(=O)[C@H](C)NP(=O)(OC[C@H]1O[C@@H](n2ccc(=O)[nH]c2=O)[C@@](F)(Cl)[C@@H]1O)Oc1ccccc1` (stereo partly drawn) [Example 2, (2S)-isopropyl 2-(((((2R,3R,4S,5R)-4-chloro-5-(2,4-dioxo-3,4-dihydropyrimidin-1(2H)-yl)-4-fluoro-3-hydroxytetrahydrofuran-2-yl)methoxy)(phenoxy)phosphoryl)amino)propanoate], the EC50 [1] was 59 nM, the EC50 [2] was 58 nM and the EC50 [3] was 70 nM. For the same compound, the “FC vs WT, HCV GT1b L159F/L320F” value [3] was 1.6, the EC50 [4, 17] was 62 nM and the EC50 [4, 18] was 62 nM. The “FC vs WT, HCV GT3a* L159F/L320F” value [4] was 1.3, the EC50 [5] was 43 nM and the “potency increase vs sofosbuvir” value [5] was 2.7. For the same compound, the EC50 [6] was 17 nM, the EC50 [7] was 50 nM and the EC50 [8] was 44 nM. For the same compound, the EC50 [9, 19] was 122 nM, the EC50 [9, 20] was 130 nM and the “FC vs WT, HCV GT3a* S282T” value [9] was 2.7. The EC50 [10] was 298 nM, the “FC vs WT, HCV GT1b S282T” value [10] was 6.8 and the EC50 [11] was 171 nM. For the same compound, the “potency increase vs sofosbuvir” value [11] was 3.1, the EC50 [12, 21] was 45 nM and the EC50 ([12]; Huh-Luc HCV 1b replicon, three days incubation, luciferase activity, read-out: EC50) was 55 nM. The EC50 [13] was 44 nM, the EC50 ([14]; GT3A, read-out: EC50 HCV GT3a*) was 46 nM and the EC50 [14, 22] was 72 nM. For the same compound, the EC50 [15] was 301 nM, the “FC vs WT, HCV GT1a* S282T” value [15] was 6.0 and the EC50 [16] was 23 nM.
